We go through nine compounds from PubChem BioAssay (NCI).

SMILES strings stand for the structures.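 Five compound concentrations were applied to cells in 96-well plates for 48 hours; endpoints were derived by simple linear interpolation of the resulting dose-response curve. Here, GI50 denotes the concentration required for 50% inhibition of growth. TGI: total growth inhibition.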

Assay in all cases: growth of human tumour cells (NCI), 48 h
In assay [1] the test system is A498 renal.
Assay [2] relates to HCT-116 colon.
Assay [3] concerns HS 578T breast.
Assay [4] relates to LOX IMVI melanoma.
In assay [5] the test system is MALME-3M melanoma.
Assay [6] deals with OVCAR-3 ovarian.
Assay [7] concerns PC-3 prostate.
Assay [8] relates to SK-MEL-5 melanoma.
The test system of assay [9] is UACC-62 melanoma.
For assay [10], the system named is UO-31 renal.

Consider `O=C(N/N=C/c1ccc(Cl)cc1)c1ccc(C(F)(F)F)nc1Nc1cccc(C(F)(F)F)c1`, for which the GI50 in assay [1] is 2.24 µM; in assay [2], 2.6 µM; in assay [3], 2.98 µM; in assay [4], 1.3 µM; in assay [5] it was 3.86 µM; in assay [6], 1.11 µM. For the same compound, the GI50 was 2.05 µM in assay [7], 1.46 µM in assay [8], 2.39 µM in assay [9] and 1.66 µM in assay [10]. Besides, the TGI in assay [1] was determined as 8.69 µM; in [2], 10.9 µM; in [3], 10.2 µM; in [4], 8 µM; in assay [5] it was 23 µM; in assay [6] it was 6.9 µM. The TGI in assay [7] worked out at 8.03 µM; in assay [8], 3.55 µM; in [9], 6.15 µM; in assay [10] it was 5.42 µM.

Turning to `COc1ccc(Nc2c3ccccc3nc3occc23)cc1`, the GI50 in [1] is 4.5 µM; in assay [2], 1.54 µM; in assay [3], 6.23 µM; in assay [4] it was 6.14 µM; in assay [5] it was 2.31 µM; in assay [6] it was 0.366 µM. Moreover, the GI50 in assay [7] is 3.25 µM; in assay [8], 1.32 µM; in [9] it was 0.342 µM; in assay [10], 22.5 µM. In addition, the TGI in [1] is 21.8 µM; in assay [2] it was over 32.3 µM; in assay [3], over 67.6 µM; in assay [4], 59.9 µM; in assay [5], 34.3 µM; in assay [6], 4.2 µM. The TGI is over 39.5 µM in assay [7], 13.4 µM in assay [8] and over 100 µM in assay [10].

Consider `CCOC(=O)[C@@H](N)CCC(=O)N[C@@H](CSCc1ccccc1)C(=O)N[C@@H](C(=O)OCC)c1ccccc1`, for which the GI50 was 17.2 µM in [1]; 18.3 µM in [2]; 16.6 µM in assay [3]; 16.7 µM in [4]; 19.7 µM in [5]; 16.7 µM in [6]. The GI50 in assay [7] is 16.5 µM; in assay [8], 14.2 µM; in assay [9], 17.1 µM; in [10], 34.5 µM. Also, the TGI in [1] is 38.8 µM; in assay [2], 36.8 µM; in assay [3], 47.3 µM; in [4], 32.1 µM; in assay [5] it was 36.2 µM; in assay [6] it was 30.7 µM. Also, the TGI in assay [7] is 37.3 µM; in assay [8], 27.5 µM; in assay [9], 33 µM; in [10], over 59.5 µM.

For `CC(=O)CSCc1ccccn1`, the TGI in [1] was over 100 µM; in assay [2], over 100 µM; in assay [3], 7.23 µM; in assay [4] it was over 100 µM; in assay [5], 9.99 µM; in [6] it was over 100 µM. The TGI in assay [7], in assay [8], in assay [9] and in assay [10] was over 100 µM throughout.

Take `Cc1ccc(C(=O)CN(/C=C/C(=O)C(F)(F)F)c2ccc(S(N)(=O)=O)cc2)cc1`: the GI50 in assay [1] is over 100 µM; in assay [2], 41.9 µM; in [3] it was 55.3 µM; in [4] it was 76 µM; in [5] it was over 100 µM; in [6], 42.6 µM. Further, the GI50 in assay [7] is 59.8 µM; in [8] it was 49.8 µM; in assay [9] it was over 100 µM; in assay [10] it was over 100 µM. Also, the TGI in assay [1], in assay [2], in assay [3], in [4], in assay [5] and in assay [6] was over 100 µM throughout. For the same compound, the TGI in [7], in [8], in assay [9] and in assay [10] was over 100 µM throughout.

Turning to `CC(C)(C)c1cc(Br)c(O)c(CN(Cc2cc(C(C)(C)C)cc(Br)c2O)C2CCCCC2)c1`, the TGI in assay [1] came out at 26.3 µM; in [2], 25 µM; in [3] it was 28.4 µM; in assay [4], 29.8 µM; in [5], 24.1 µM; in assay [6], 24.2 µM. Besides, the TGI in assay [7] came to 28.1 µM; in assay [8], 22.8 µM; in assay [9] it was 25.3 µM; in assay [10], 27.4 µM.

On to `CN1CCN(CCCOc2ccc3nc(Nc4ccc(Cl)c(C(F)(F)F)c4)ccc3c2)CC1`, for which the GI50 was 13.7 µM in assay [1]; 8.44 µM in [2]; 12.5 µM in assay [3]; 4.07 µM in [4]; 11.3 µM in [5]; 12.5 µM in assay [6]. Further, the GI50 in assay [7] was 13.3 µM; in assay [8] it was 15.1 µM; in assay [9], 16.4 µM; in assay [10], 14.5 µM. Also, the TGI in [1] was found to be 28.8 µM; in assay [2] it was 21.7 µM; in assay [3] it was 32.1 µM; in [4] it was 15.9 µM; in assay [5] it was 28.4 µM; in assay [6], 25.8 µM. The TGI in assay [7] was determined as 27.1 µM; in assay [8], 29.1 µM; in [9], 31.7 µM; in [10], 29.4 µM.

Take `COC1=C(C)C(=O)c2c(c(COC(N)=O)c3n2CC2C3N2C)C1=O` (stereo not drawn): the TGI in assay [1] was 0.206 µM; in assay [2], 0.0641 µM; in assay [3], 0.986 µM; in assay [4], 0.053 µM; in [5], 0.164 µM; in assay [6], 0.0987 µM. The TGI in [7] was determined as 0.244 µM; in assay [8], 0.15 µM; in assay [9], 0.117 µM; in [10], 0.232 µM.

In the case of `CC(C)n1nc(-c2cc3cc(O)ccc3[nH]2)c2c(N)ncnc21`, the GI50 in assay [1] is 0.0194 µM; in [2], 0.634 µM; in assay [3], 0.109 µM; in assay [4] it was 0.309 µM; in assay [5], 0.0269 µM; in assay [6], 0.22 µM. For the same compound, the GI50 was 0.086 µM in assay [7], 0.171 µM in assay [8], 0.161 µM in assay [9] and 0.0464 µM in assay [10]. The TGI in [1] worked out at 0.123 µM; in assay [2] it was 14.4 µM; in assay [3], 0.503 µM; in assay [5] it was 0.265 µM; in [6], 2.75 µM; in [7] it was 6.45 µM. Besides, the TGI in assay [8] stood at 1.43 µM; in assay [9] it was 0.962 µM; in assay [10], 0.726 µM.
